Test results from patent publication US20110230481A2, “DERIVATIVES OF TETRABROMOBENZIMIDAZOLE, A PROCESS FOR THE PREPARATION THEREOF, A PHARMACEUTICAL COMPOSITION COMPRISING THE SAME, A METHOD OF USING THE SAME, A METHOD FOR MODULATING OR REGULATING SERINE/THREONINE KINASES, AND SERINE/THREONINE KINASES MODULATING AGENT” (SELVITA S.A., priority 2009, published 2011).
pIC50: −log10 of the molar value. Like-named read-outs stand apart in the source and are kept apart here.

Assays:
[1] = system: human prostate adenocarcinoma PC3 cells; assay: Growth inhibition test (MTS); type: cell-based; details: PC-3; 72 hours
Experimental: (§1) Two thousand cells of human prostate adenocarcinoma PC3 were inoculated into each well of a 96-well microplate (manufactured by Corning Corp.), and using F12K (Ham's F12:RPMI 8226 1:1) medium (culture medium) containing 10% fetal calf serum (FCS). The same day, a dimethyl sulfoxide (DMSO) solution of each test compound prepared in a concentration of 10 mmol/L was further diluted with DMSO to the desired concentrations (0.1, 0.5, 1, 2.5, 5 and 10 micromol/L), and the diluted solution was added to each well. The individual wells were further cultured in 5% carbon dioxide at 37° C. for 72 hours. After completion of the culture, 10 μl MTS (3-(4,5-Dimethyl-2-thiazolyl)-5-(carboxymethoxyphenyl)-2-(4-sulfophenyl)-2H-tetrazolium, inner salt assay (CellTiter96® AQueous One Solution Cell Proliferation Assay, Promega) was added to each well, and culturing was performed in 5% carbon dioxide at 37° C. for 2 hours. Using a microplate spectrophotometer (Synergy 2 multi-mode microplate reader (BioTek)), the absorbance of each well was measured at 490 nm. The value for cells not incorporated with a test compound was designated as 100%. By comparing these values with the absorbance difference obtained at the well in which each test compound was added, the cell viability (% viability) after treatment with the test compound was calculated.

[2] = system: human prostate carcinoma DU145 cells; assay: Growth inhibition test (MTS); type: cell-based; details: 72 hours
Experimental: as §1, with “carcinoma DU145” for “adenocarcinoma PC3”, “DMEM” for “F12K (Ham's F12:RPMI 8226 1:1)”, “innersalt” for “inner salt”

[3] = system: human acute promyelocytic leukemia HL-60 cells; assay: Growth inhibition test (MTS); type: cell-based; details: 72 hours
Experimental: as §1, with “Ten” for “Two”, “acute promyelocytic leukemia HL-60” for “prostate adenocarcinoma PC3”, “Corp.)” for “Corp.), and”, “RPMI” for “F12K (Ham's F12:RPMI”, “8226” for “8226 1:1)”

[4] = system: human acute lymphocytic leukemia E6.1 Jurkat cells; assay: Growth inhibition test (MTS); type: cell-based; details: 72 hours, read-out: Cytotoxicity in MTS assay (ED50); for pIC50: Homo sapiens
Experimental: as §1, with “Twenty” for “Two”, “acute lumphocytic leukemia E6.1 Jurkat” for “prostate adenocarcinoma PC3”, “Corp.)” for “Corp.), and”, “[…]” for “F12K (Ham's F12:RPMI”, “[…]” for “8226 1:1)”

[5] = target: PIM2 (Homo sapiens, UniProt Q9P1W9); assay: Radiometric kinase assay (HotSpot); details: for Selectivity for Pim-2 over CK2α: ratio of IC50 values; for IC50: read-out: Inhibitory activity (IC50 in nM) in radiometric cell free assay, Pim-2, ATP 1 μM, peptide 5 μM
[6] = target: PIM3 (Homo sapiens, UniProt Q86V86); assay: Radiometric kinase assay (HotSpot); details: for Selectivity for Pim-3 over CK2α: ratio of IC50 values; for IC50: read-out: Inhibitory activity (IC50 in nM) in radiometric cell free assay, Pim-3, ATP 1 μM, peptide 20 μM
[7] = target: CK2α (Homo sapiens, UniProt P68400); assay: Radiometric kinase assay (HotSpot); details: for IC50: read-out: Inhibitory activity (IC50 in nM) in radiometric cell free assay, CK2α, ATP 1 μM, peptide 20 μM
CK2α, sequence (P68400 whole entry): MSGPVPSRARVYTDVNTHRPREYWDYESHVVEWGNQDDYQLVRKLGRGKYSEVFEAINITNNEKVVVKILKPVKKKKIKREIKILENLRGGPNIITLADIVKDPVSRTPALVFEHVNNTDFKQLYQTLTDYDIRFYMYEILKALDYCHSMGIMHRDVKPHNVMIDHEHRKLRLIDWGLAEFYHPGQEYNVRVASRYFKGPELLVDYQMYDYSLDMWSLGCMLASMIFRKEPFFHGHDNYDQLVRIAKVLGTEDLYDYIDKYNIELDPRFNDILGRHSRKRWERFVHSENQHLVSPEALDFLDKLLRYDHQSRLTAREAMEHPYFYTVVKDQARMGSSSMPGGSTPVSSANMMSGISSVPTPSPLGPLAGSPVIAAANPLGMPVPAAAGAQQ

PIM2, sequence (Q9P1W9 whole entry): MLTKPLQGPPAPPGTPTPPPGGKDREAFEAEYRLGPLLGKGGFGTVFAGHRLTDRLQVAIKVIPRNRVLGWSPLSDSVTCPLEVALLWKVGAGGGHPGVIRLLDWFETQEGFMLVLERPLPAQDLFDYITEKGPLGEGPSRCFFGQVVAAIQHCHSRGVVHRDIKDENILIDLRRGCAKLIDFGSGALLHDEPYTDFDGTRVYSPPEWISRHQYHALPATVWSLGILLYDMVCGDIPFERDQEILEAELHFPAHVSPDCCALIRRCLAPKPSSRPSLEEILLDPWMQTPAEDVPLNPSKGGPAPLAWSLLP

pIC50 [5] | pIC50 [6] | pIC50 [7] | Structure (SMILES) | Cytotoxicity in MTS assay (ED50) [1] | Cytotoxicity in MTS assay (ED50) [2] | Cytotoxicity in MTS assay (ED50) [3] | pIC50 [4] | Selectivity for Pim-2 over CK2α [5] | Selectivity for Pim-3 over CK2α [6] | IC50 [4] | IC50 [5] | IC50 [6] | IC50 [7]
6.05 | 7.22 | 5.65 | Brc1c(Br)c(Br)c2[nH]c(NCCN3CCCCC3)nc2c1Br [Compound 13, 4,5,6,7-tetrabromo-N-(2-(piperidin-1-yl)ethyl)-1H-benzo[d]imidazol-2-amine] | 5.19 µM | 4.1 µM | 3.29 µM | 5.87 | 2.5 | 37.3 |  |  |  | 
6.21 | 7.55 | 6.08 | Brc1c(Br)c(Br)c2[nH]c(NCCN3CCCC3)nc2c1Br [Compound 14, 4,5,6,7-tetrabromo-N-(2-(pyrrolidin-1-yl)ethyl)-1H-benzo[d]imidazol-2-amine] | 5.47 µM | 3.14 µM | 2.04 µM | 5.58 | 1.3 | 29.6 |  |  |  | 
5.52 | 6.94 | 5.16 | Brc1c(Br)c(Br)c2[nH]c(NCCN3CCOCC3)nc2c1Br [Compound 16, 4,5,6,7-tetrabromo-N-(2-morpholinoethyl)-1H-benzo[d]imidazol-2-amine] | >10 µM | 8.64 µM | >10 µM | 5.61 | 2.3 | 60.1 |  |  |  | 
5.77 | 7.08 | 5.74 | CN1CCN(c2nc3c(Br)c(Br)c(Br)c(Br)c3[nH]2)CC1 [Compound 21, 4,5,6,7-tetrabromo-2-(4-methylpiperazin-1-yl)-1H-benzo[d]imidazole] | >10 µM | 9.54 µM | >10 µM | 5.58 | 1.1 | 21.7 |  |  |  | 
 |  |  | Brc1c(Br)c(Br)c2c(Br)n[nH]c2c1Br [Compound K64, reference compound] | >10 µM | >10 µM |  |  | 0.7 | 3.0 | >10 µM | 871 nM | 212 nM | 637 nM
 |  |  | CN(C)c1nc2c(Br)c(Br)c(Br)c(Br)c2n1CC(=O)O [Compound K66, reference compound] | >10 µM | >10 µM |  |  | 0.2 | 2.1 | >10 µM | 954 nM | 96.3 nM | 206 nM
 |  |  | CN(C)c1nc2c(Br)c(Br)c(Br)c(Br)c2[nH]1 [DMAT, reference compound] | >10 µM | >10 µM | >10 µM |  |  |  | 8.18 µM | 2460 nM | 87.3 nM | 
 |  |  | Brc1c(Br)c(Br)c2[nH]nnc2c1Br [TBB, reference compound] | >10 µM | >10 µM |  |  |  |  | >10 µM | > 20000 nM | 269 nM | 
 |  |  | Brc1c(Br)c(Br)c2[nH]cnc2c1Br [TBI, reference compound] | >10 µM | >10 µM |  |  |  |  | >10 µM | > 20000 nM | 2940 nM | 

Structure (SMILES) | pIC50 [5] | pIC50 [6] | pIC50 [7] | Cytotoxicity in MTS assay (ED50) [1] | Cytotoxicity in MTS assay (ED50) [2] | Cytotoxicity in MTS assay (ED50) [3] | pIC50 [4] | Selectivity for Pim-2 over CK2α [5] | Selectivity for Pim-3 over CK2α [6] | IC50 [4] | IC50 [5] | IC50 [6] | IC50 [7]
NCCCNc1nc2c(Br)c(Br)c(Br)c(Br)c2[nH]1 [Compound 11, N-(3-aminopropyl)-4,5,6,7-tetrabromo-1H-benzo[d]imidazol-2-amine] | 7.01 | 7.63 | 5.99 | 7.32 µM | 7.62 µM | 6.12 µM | 5.76 | 10.3 | 43.6 |  |  |  | 
Brc1c(Br)c(Br)c2[nH]c(N3CCNCC3)nc2c1Br [Compound 20, 4,5,6,7-tetrabromo-2-(piperazin-1-yl)-1H-benzo[d]imidazole] | 6.49 | 7.38 | 6.88 | 6.61 µM | 9.27 µM | 7.88 µM | 5.66 | 0.4 | 3.1 |  |  |  | 
